Positions of bridges follow the written chain, without caps; N, C: chain ends. Non-standard residues stand in square brackets, D forms with d. No end group written: not given here.
Legend:
KgpF [1] = test: Prenylation of translated thioether-closed artificial cyclic peptides with KgpF, MALDI-TOF-MS analysis (Examples 1-9; 37° C., 18 hours); type: biochemical, Microcystis aeruginosa; design: key to DMAPP adduct 0 / DMAPP adduct 1: 0: N/A; 1: Nothing; 2: Very weak intensity; 3: Medium intensity; 4: Strong intensity; conditions: 2 mM DMAPP; for prenylation modification with KgpF (MALDI-TOF-MS): Example 3: 160 or 580 μM KgpF; for DMAPP adduct 1: MALDI-TOF-MS peak intensity of singly prenylated peptide; for DMAPP adduct 1 / DMAPP adduct 0: 160 μM KgpF; for DMAPP adduct 0: MALDI-TOF-MS peak intensity of unmodified peptide
Experimental: With regards to each of KgpF and OltF, heterogeneous co-expression of a gene synthesized after optimizing the codon of a gene derived from a producing strain was performed in Escherichia coli, followed by purification to obtain a prenylation enzyme.
The analysis was performed using UltrafleXtreme (Bruker Daltonics) or Autoflex II (Bruker Daltonics) and peptide calibration standard II (Bruker Daltonics).
In short, six kinds in total of peptides were obtained by translation and synthesis under (Conditions 1) of the artificial translation system developed by the present inventors. The peptides thus obtained were then reacted with 14.7 μM KgpF at 37° C. for 18 hours in the system shown in (Conditions 2). “DMAPP” used in (Conditions 2) is dimethylallyl pyrophosphoric acid.
(Conditions 1) • FIT system: v7s/v8.0.3 • 19aa-Met: 0.5 mM • ClAc-D or L-Trp-tRNA^fMetCUA: 90 μM • Reaction: 37° C., 60 min. • Scale: […] scale
(Conditions 2) • Translated mixture amount: 2.5 μL (mixture obtained under (Conditions 1)) • KgpF: 14.7 μM • DMAPP: 2 mM • Total amount: 15.7 μL • Reaction: 37° C., 18 hours
The YG280 sequences having the steric configuration of the N terminal Trp serving as an initiation residue of D-form and those of L-form were synthesized, so that two kinds of peptides were prepared in total. These two kinds of artificial cyclic peptides were obtained by translation and synthesis in the artificial translation system (Conditions 3) developed by the present inventors. The peptides thus obtained were then reacted with 53, 160, and 580 μM KgpF in a system shown in (Conditions 4) at 37° C. for 18 hours.
(Conditions 3) • FIT system: v7s/v8.0.3 • 19aa-Met: 0.5 mM • ClAc-D or L-Trp-tRNA^fMetCUA: 120 μM • Reaction: 37° C., 3 hours • Scale: 2.5 μL scale
(Conditions 4) • Translated mixture amount: 2.5 μL (mixture obtained under (Conditions 3)) • KgpF: 53, 160, 580 μM • DMAPP: 2 mM • Reaction: 37° C., 18 hours
(§1) The above three kinds of artificial cyclic peptides were obtained by translation and synthesis in the artificial translation system (Conditions 5) developed by the present inventors. The peptides thus obtained were then reacted with KgpF in the system shown below in (Conditions 6) at 37° C. for 18 hours.
(Conditions 5) • FIT system: v7s/v8.0.3 • 19aa-Met: 0.5 mM • ClAc-D or L-Trp-tRNA^fMetCUA: 90 μM • Reaction: 37° C., 60 min. • Scale: 2.5 μL scale
(Conditions 6) • Translated mixture amount: 2.5 μL (mixture obtained under (Conditions 5)) • KgpF: 160 or 580 μM • DMAPP: 2 mM • Reaction: 37° C., 18 hours
as §1, with “six” for “three”, “7)” for “5)”, “with 160 μM” for “with”, “shown” for “shown below”, “8)” for “6)”
(Conditions 7) • FIT system: v7s/v9.1 • 19aa-Met: 0.5 mM • ClAc-D-Tyr-tRNA^fMetCUA: 90 μM • Reaction: 37° C., 60 min. • Scale: 2.5 μL scale
(Conditions 8) • Translated mixture amount: 2.5 μL (mixture obtained under (Conditions 7)) • KgpF: 160 μM • DMAPP: 2 mM • Reaction: 37° C., 18 hours
as §1, with “9)” for “5)”, “with 160 μM” for “with”, “shown” for “shown below”, “10)” for “6)”
(Conditions 9) • FIT system: v7s/v9.1 • 19aa-Met: 0.5 mM • ClAc-D-Tyr-tRNA^fMetCUA: 90 μM • Reaction: 37° C., 60 min. • Scale: 2.5 μL scale
(Conditions 10) • Translated mixture amount: 2.5 μL (mixture obtained under (Conditions 9)) • KgpF: 160 μM • DMAPP: 2 mM • Reaction: 37° C., 18 hours
The above artificial cyclic peptides were obtained by translation and synthesis in the artificial translation system (Conditions 11) developed by the present inventors. […]

KgpF v 3.1 = test: Prenylation of artificial cyclic peptides with 10 μM KgpF v 3.1 (Example 11; Table 7); type: biochemical, Microcystis aeruginosa; design: key: 5: strong intensity; 4: medium intensity; 3: weak intensity; 2: very weak intensity; 1: no peak; N/A: not observed; conditions: KgpF v 3.1 10 μM
Experimental: Reaction of the artificial cyclic peptide shown in Table 7 was made under conditions similar to (Conditions 11) and (Conditions 12) except that v8s/v11.1 was used as FIT system, KgpF v 3.1 was used as a prenylation modification enzyme, and the concentration of the KgpF v 3.1 was set at 10 μM. Here, KgpF v 3.1 is an enzyme having a higher purification degree and more improved specific activity than KgpF used under (Conditions 12).

OltF v 2.1 = test: Modification test of thioether-closed artificial cyclic peptides with 9.13 μM OltF v 2.1 (Example 16; Tables 11 and 12); type: biochemical, Planktothrix; design: key: 5: strong intensity; 4: medium intensity; 3: weak intensity; 2: very weak intensity; 1: no peak; N/A: not observed; conditions: Table 11; OltF v 2.1 9.13 μM, DMAPP 2 mM, 37° C., 18 hours
Experimental: The artificial cyclic peptides shown in Table 11 and Table 12 were obtained by translation and synthesis in the artificial translation system (Conditions 23) developed by the present inventors. The peptides thus obtained were then reacted with 9.13 μM OltF in the system shown in (Conditions 24) at 37° C. for 18 hours. It is to be noted that OltF v 2.1 is an enzyme prepared from OltF used in (Conditions 22) while changing a purification manner.
(Conditions 23) • FIT system: v8s/v11.1 • 19aa-Met: 0.5 mM • ClAc-D or L-Tyr-tRNA^fMetCUA: 90 μM • Reaction: 37° C., 60 min. • Scale: 2.5 μL scale
(Conditions 24) • Translated mixture amount: 2.5 μL (mixture obtained under (Conditions 23)) • OltF v 2.1: 9.13 μM • DMAPP: 2 mM • Reaction: 37° C., 18 hours

KgpF [2] = test: Prenylation of artificial cyclic peptides containing VW or WG sequence with 60 μM KgpF (Examples 12 and 13; Tables 8, 9, 10); type: biochemical, Microcystis aeruginosa; design: key: 5: strong intensity; 4: medium intensity; 3: weak intensity; 2: very weak intensity; 1: no peak; N/A: not observed; conditions: KgpF 60 μM, DMAPP 2 mM, 37° C., 18 hours
Experimental: (§2) The artificial cyclic peptides shown in Table 8 and Table 9 were obtained by translation and synthesis in the artificial translation system (Conditions 15) developed by the present inventors. The peptides thus obtained were then reacted with 60 μM KgpF in the system shown in (Conditions 16) at 37° C. for 18 hours.
(Conditions 15) • FIT system: v8s/v11.1 • 19aa-Met: 0.5 mM • ClAc-D-Tyr-tRNA^fMetCUA: 90 μM • Reaction: 37° C., 60 min. • Scale: 2.5 μL scale
(Conditions 16) • Translated mixture amount: 2.5 μL (mixture obtained under (Conditions 15)) • KgpF: 60 μM • DMAPP: 2 mM • Reaction: 37° C., 18 hours
as §2, with “10” for “8 and Table 9”, “17)” for “15)”, “18)” for “16)”
(Conditions 17) • FIT system: v8s/v11.1 • 19aa-Met: 0.5 mM • ClAc-D-Tyr-tRNA^fMetCUA: 90 μM • Reaction: 37° C., 60 min. • Scale: 2.5 μL scale
(Conditions 18) • Translated mixture amount: 2.5 μL (mixture obtained under (Conditions 17)) • KgpF: 60 μM • DMAPP: 2 mM • Reaction: 37° C., 18 hours

[3] = Table 8, VW sequence, various ring sizes
[4] = Table 9, VW sequence, various ring sizes
[5] = Table 10, W at various positions

Sequence of OltF v 2.1 (as listed by the source): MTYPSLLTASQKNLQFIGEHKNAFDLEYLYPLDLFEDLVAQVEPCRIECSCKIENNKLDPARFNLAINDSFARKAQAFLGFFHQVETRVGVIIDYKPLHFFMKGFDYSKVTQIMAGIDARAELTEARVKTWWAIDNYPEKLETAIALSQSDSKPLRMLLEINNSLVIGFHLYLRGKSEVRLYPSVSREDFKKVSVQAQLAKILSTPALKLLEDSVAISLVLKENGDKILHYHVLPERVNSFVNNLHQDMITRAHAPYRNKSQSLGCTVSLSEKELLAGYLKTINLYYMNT
Sequence of KgpF (as listed by the source): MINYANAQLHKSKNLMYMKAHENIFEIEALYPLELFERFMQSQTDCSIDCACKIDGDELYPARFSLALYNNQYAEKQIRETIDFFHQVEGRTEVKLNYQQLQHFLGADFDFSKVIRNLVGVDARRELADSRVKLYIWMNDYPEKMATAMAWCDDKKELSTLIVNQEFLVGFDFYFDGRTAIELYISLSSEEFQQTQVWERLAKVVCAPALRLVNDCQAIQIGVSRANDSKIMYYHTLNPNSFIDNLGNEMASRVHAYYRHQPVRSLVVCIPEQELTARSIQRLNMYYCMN

YG290-CM11: peptide having no Trp residue in the peptide chain (random region) (Ac-[dW]CDVSGRFGYFPC; thioether (positions not given here); also: thioether ring to Cys2 or Cys13)
prenylation modification with KgpF (MALDI-TOF-MS) (KgpF [1]): no modified product was found

YG291-PaktiL2 ({CH2CO}-[dY]WILITWPLVRRKC; thioether N-14 (inferred))
Peak intensity, The number of prenyl groups added 0 (KgpF v 3.1): 4
Peak intensity, The number of prenyl groups added 1 (KgpF v 3.1): 4

YG292 ({CH2CO}-[dY]IRRPWVPIIYLGC; thioether N-14 (inferred))
Peak intensity, The number of prenyl groups added 0 (OltF v 2.1): 2
Peak intensity, The number of prenyl groups added 1 (OltF v 2.1): 5

YG293 ({CH2CO}-[dY]TFRDVWIFYGSLLSRC; thioether N-17 (inferred))
Peak intensity, The number of prenyl groups added 0 (OltF v 2.1): 3
Peak intensity, The number of prenyl groups added 1 (OltF v 2.1): 4

YG293-MaL4 ({CH2CO}-[dY]TFRDVWIFYGSLLSRC; thioether N-17 (inferred))
Peak intensity, The number of prenyl groups added 0 (KgpF v 3.1): 1
Peak intensity, The number of prenyl groups added 1 (KgpF v 3.1): 5

YG295 ({CH2CO}-[dY]ISWNEFNSPNWRFITC; thioether N-17 (inferred); not fully specified)
Peak intensity, The number of prenyl groups added 0 (OltF v 2.1): 4
Peak intensity, The number of prenyl groups added 1 (OltF v 2.1): 3
Peak intensity, The number of prenyl groups added 2 (OltF v 2.1): 1

YG295-aML5 ({CH2CO}-[dY]ISWNEFNSPNWRFITC; thioether N-17 (inferred))
Peak intensity, The number of prenyl groups added 0 (KgpF v 3.1): 1
Peak intensity, The number of prenyl groups added 1 (KgpF v 3.1): 5
Peak intensity, The number of prenyl groups added 2 (KgpF v 3.1): 1

YG296 ({CH2CO}-[dY]WYYAWDQTYKAFPC; thioether N-15 (inferred))
Peak intensity, The number of prenyl groups added 0 (OltF v 2.1): 3
Peak intensity, The number of prenyl groups added 1 (OltF v 2.1): 2
Peak intensity, The number of prenyl groups added 2 (OltF v 2.1): 1

YG296-aMD5 ({CH2CO}-[dY]WYYAWDQTYKAFPC; thioether N-15 (inferred))
Peak intensity, The number of prenyl groups added 0 (KgpF v 3.1): 5
Peak intensity, The number of prenyl groups added 1 (KgpF v 3.1): 3
Peak intensity, The number of prenyl groups added 2 (KgpF v 3.1): 1

YG297 ({CH2CO}-[dY]RQFNRRTHEVWNLDC; thioether N-16 (inferred))
Peak intensity, The number of prenyl groups added 0 (OltF v 2.1): 5
Peak intensity, The number of prenyl groups added 1 (OltF v 2.1): 4

YG298: YG280 mutant having only the N-terminal Trp residue remained ({CH2CO}-[dW]LNGDNNYSTPC; thioether N-12)
prenylation modification with KgpF (MALDI-TOF-MS) (KgpF [1]): no modified product was found

YG299 (Ac-[dY]CDVSGRWGYFPC; thioether (positions not given here); not fully specified (bridges))
Peak intensity, The number of prenyl groups added 0 (OltF v 2.1): 3
Peak intensity, The number of prenyl groups added 1 (OltF v 2.1): 5

YG300-CM11(RFG > NWS): artificial cyclic peptide, template YCDVSGNWSYPC (SEQ ID NO 239)
DMAPP adduct 1 (KgpF [1]): 4
DMAPP adduct 0 (KgpF [1]): 2

YG304-YG280(FFWFF): artificial cyclic peptide, template YLNGDFFWFFPC (SEQ ID NO 246) ({CH2CO}-[dY]LNGDFFWFFPC; thioether N-12)
DMAPP adduct 1 (KgpF [1]): 3
DMAPP adduct 0 (KgpF [1]): 4

YG386 ({CH2CO}-[dY]VWCYPRG; thioether N-4)
Peak intensity, The number of prenyl groups added 0 (KgpF [2]; [3]): 1
Peak intensity, The number of prenyl groups added 1 (KgpF [2]; [3]): 5

YG390 ({CH2CO}-[dY]RVWGYPC; thioether N-8)
Peak intensity, The number of prenyl groups added 0 (KgpF [2]; [3]): 1
Peak intensity, The number of prenyl groups added 1 (KgpF [2]; [3]): 5

YG395 ({CH2CO}-[dY]HDYRVWGYHTPC; thioether N-13 (inferred))
Peak intensity, The number of prenyl groups added 0 (KgpF [2]; [4]): 1
Peak intensity, The number of prenyl groups added 1 (KgpF [2]; [4]): 5

YG402 ({CH2CO}-[dY]WGHDYRVYHTYPC; thioether N-14 (inferred))
Peak intensity, The number of prenyl groups added 0 (KgpF [2]; [5]): 5
Peak intensity, The number of prenyl groups added 1 (KgpF [2]; [5]): 1

YG411 ({CH2CO}-[dY]HDYRYHTYPVWGC; thioether N-14 (inferred))
Peak intensity, The number of prenyl groups added 0 (KgpF [2]; [5]): 1
Peak intensity, The number of prenyl groups added 1 (KgpF [2]; [5]): 5

Source: patent publication US20220275534A1, “Peptide Library Production Method” (The University of Tokyo, priority 2018, published 2022)
